# Test results taken from patent US12044651B2, “Sensor device and methods” (SCENTIAN BIO LIMITED, priority 2016, dated 2024).
# Legend:
# [1] = molecular target: T1, Or22a (Drosophila melanogaster, UniProt P81909); experiment: EIS sensor, Or22a liposomes on gold electrode (Example 1); assay type: binding; details: Or22a liposomes, EIS
# T1 sequence (P81909 1-397): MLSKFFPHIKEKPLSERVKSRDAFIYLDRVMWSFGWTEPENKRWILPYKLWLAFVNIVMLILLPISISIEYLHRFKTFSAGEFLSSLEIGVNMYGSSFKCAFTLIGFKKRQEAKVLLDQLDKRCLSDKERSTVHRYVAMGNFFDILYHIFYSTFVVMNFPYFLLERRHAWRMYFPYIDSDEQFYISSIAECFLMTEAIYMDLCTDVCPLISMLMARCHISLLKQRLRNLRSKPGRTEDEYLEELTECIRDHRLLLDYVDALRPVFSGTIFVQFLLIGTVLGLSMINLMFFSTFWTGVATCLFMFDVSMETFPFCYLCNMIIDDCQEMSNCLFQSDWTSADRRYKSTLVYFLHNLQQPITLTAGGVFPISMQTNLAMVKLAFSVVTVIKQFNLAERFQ
# Experimental: Liposomes were prepared using a phospholipid solution produced by evaporating solutions containing: phosphatidylethanolamine (PE), phosphatidylserine (PS), phosphatidylcholine (PC), and cholesterol (CH) at a molar ratio of 5:3:3:1 in a small glass tube under a stream of N2 gas, then desiccating under vacuum for 1 h. […] To promote the formation of liposomes, 10 freeze/thaw steps were performed by transferring the tube from liquid nitrogen to a 40° C. water bath. Liposomes were then sized by passing the lipid solution 11 times through a 100-nm polycarbonate membrane using an Avestin LiposoFAST extruder unit (Avestin, Germany). Glycerol was added at 10% of the final volume and aliquots at 10 mg/mL were snap frozen in liquid nitrogen and stored at -80° C. Prior to their use, liposomes were defrosted on ice and then destabilized by incubating with 0.2% CHAPS for 15 min at room temperature. Then 200 μg of purified odorant receptor^14 was added to 1 mg of liposomes and rotated at 10 rpm for 1 h at room temperature. […] The Bio-Beads were removed after each incubation period. The OR integrated liposomes were pelleted by centrifugation at 100,000 g for 1 h, and were resuspended in 500 μL of rehydration buffer. Integration of OrXs into liposomes was assessed by density gradient ultracentrifugation (DGU) using Accudenz (Accurate Chemical & Scientific Corporation, USA). […] The sample was then centrifuged at 100,000 g for 4 h at 4° C. Liposomes will float to the top of the gradient after Accudenz DGU due to their low density. 1.3 Electrode Cleaning Gold disk (2 mm) electrodes were cleaned with polishing with Alumina paste for 2 minutes, ultra-sonicated in pure ethanol and then Milli-Q water for 5 minutes each. […] Charge transfer resistance (Rct) of electrodes were calculated by fitting obtained data to a Randles' equivalent circuit [Rs+CPE/(Rct+W)] comprising of a solution resistance (Rs) in series with a constant phase element (CPE) and in parallel with charge transfer resistance (Rct) and Warburg diffusion element. […]
# [2] = molecular target: T1, Or22a; experiment: QCM-D sensor with Or22a liposomes (Example 6); assay type: binding; details: 1.6 to 200 μM
# Experimental: (§1) Gold (100 nm) sensor crystals were sonicated in ethanol and milli-Q water for 15 minutes each respectively. A 5:1:1 volume ratio of milli-Q water, ammonia (25%), and hydrogen peroxide (30%) was heated to 75° C. for 5 minutes and the sonicated crystals were placed in the heated solution for 5 minutes. Then the crystals were removed from the solution and rinsed with milli-Q water before drying with nitrogen gas. The clean gold crystals were thiol-functionalized by exposing them to 2 mM ethanolic solution of MHA overnight followed by washing with ethanol solution in order to remove excess or loosely bound molecules.
# [3] = QCM-D control with empty liposomes (Example 6); details: empty liposomes immobilised on the QCM
# Experimental: as §1, with “molecules. The SAM functionalized crystals were then placed into the Q-sense analyser instrument (Biolin Scientific) chamber and flowed with the NHS/EDC, OR22a/liposomes and various concentrations of methyl hexanoate (1.6 μM, 8 μM, 40 μM, 200 μM and 1 mM) in PBS buffer solution to measure the changes in frequency (Δf) and dissipation (ΔD) values.” for “molecules.”
# [4] = molecular target: T2, OR71a (Drosophila melanogaster, UniProt Q9VUK5); experiment: EIS sensor, Or71a liposomes on gold electrode, optimized conditions (Example 5); assay type: binding
# T2 sequence (Q9VUK5 1-378): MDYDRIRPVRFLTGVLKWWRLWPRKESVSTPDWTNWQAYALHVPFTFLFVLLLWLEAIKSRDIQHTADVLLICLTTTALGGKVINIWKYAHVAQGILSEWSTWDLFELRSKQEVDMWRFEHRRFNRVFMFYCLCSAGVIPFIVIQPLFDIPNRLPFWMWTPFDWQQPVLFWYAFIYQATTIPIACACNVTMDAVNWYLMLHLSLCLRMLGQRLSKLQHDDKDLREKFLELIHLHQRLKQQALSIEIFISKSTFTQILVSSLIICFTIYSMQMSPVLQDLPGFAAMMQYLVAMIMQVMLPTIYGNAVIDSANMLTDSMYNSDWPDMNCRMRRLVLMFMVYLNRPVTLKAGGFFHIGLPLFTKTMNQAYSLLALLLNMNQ
SMILES,EC50 [1] [nM],Sensitivity limit (lowest detectable concentration) ([1]; signal/noise >3) [pM],change in oscillation frequency [2],increase in oscillation frequency [3],EIS response to control ligand [4]
CCCCCC(=O)OC [methyl hexanoate],~10,280,increase in the frequency,not observed,–
COC(=O)c1ccccc1O [methyl salicylate],–,–,–,–,do not respond
